Assay results taken from US20220362254A1, “METHODS FOR REPROGRAMMING CANCER CELLS” (Thomas Jefferson University, priority 2019, published 2022).

Legend:
HL-60 cells = conditions: an APL cell line; cited from earlier work
EZH2 = EZH2 (Homo sapiens, UniProt Q15910); conditions: also inhibits other methyltransferases; cited from earlier work
[1] = system: Y641 and A677 mutants of EZH2; conditions: cited from earlier work
H3K27me3 [2] = assay: CAA: H3K27me3 on nascent chromatin of TCL cells (HUT78); format: cell-based, human
Protocol: FIG. 10B: HUT78 cells were induced with 0.2 μM of RXR for the indicated times. Cells were labeled with EdU for 15 min, and CAA was performed between Biotin (EdU) and H3K27me3 antibody. PLA only is shown in the lower panel.
FIGS. 15A-15C illustrate the effect of EPZ and small molecule ligand treatment on TF binding. […] Cells were immunostained with antibodies to LXRa (left), and GR (right). Nuclei stained by DAPI are shown in the lower panel. […] In FIG. 15C, T-ALL CCRF-HSB-2 cells were untreated or treated for 6 hr with 5 μM of ISX9, or pre-treated with 0.5 μM EPZ and then treated for 6 hr with 5 μM of ISX9. In FIG. 15B and FIG. 15C, DNA was labeled with EdU for 15 min. […]
(§1) Chromatin assembly assay: Cells were grown on chamber slides, pulse-labeled with 5 μM EdU and fixed at room temperature with 4% formaldehyde in PBS for 15 min, washed with PBS, and permeabilized with 0.3% Triton for 15 min. […] The results of CAA experiments shown in FIG. 1A were quantified by counting the number of PLA signals per EdU-labeled nuclei in 50 cells of each of the three independent experiments. The nature of the results in the rest of the figures alleviated the need to quantify the results of these assays.
New approaches to study the fate of chromatic-associated proteins following DNA replication were developed. […] Reliable pulse-chase EdU labeling in cells can be detected from 3-5 min to several hours. […]

H3K27me3 [3] = assay: Chromatin assembly assay (CAA): H3K27me3 on nascent DNA of CD34+ HPCs; format: cell-based, human; conditions: CD34+ HPCs exposed to GSKJ4 during 12 hr induction; EdU 15 min, chased to 1 hr
Text: (§2) FIGS. 5A-5B illustrate that fast accumulation of post-replicative H3K27me3 leads to decreased recruitment of lineage-determining TFs to DNA. In FIG. 5A, CD34^+ cells were induced toward myeloid differentiation with G-CSF (left) or M-CSF (middle), or erythroid differentiation with EPO (right) for 12 hr. During the induction period cells were left untreated (upper panels) or treated with the GSKJ4 inhibitor of the H3K27me3 de-methylases (KDMs) UTX and JMJD3 (lower panels). DNA was pulse-labeled with EdU for 15 min and chased to 1 hr. CAA was performed between nascent DNA (biotin) and H3K27me3 (left columns) or (in the right columns) C/EBPa (left), PU.1 (middle) or GATA-1 (right). […] In FIG. 5B, quantification of the results of CAA experiments was determined by counting the number of PLA signals per EdU-labeled nuclei in 50 cells/each of the three independent experiments.
as §1, with “assays. […]” for “assays.”

GATA-1 = assay: CAA: recruitment of GATA-1 to nascent DNA in CD34+ HPCs; format: cell-based, human; conditions: CD34+ HPCs induced with EPO 12 hr
Text: as §2
as §1, with “assays. […]” for “assays.”

T-bet = assay: CAA: recruitment of T-bet to nascent DNA in T cells (Th1); format: cell-based; conditions: Th1 pathway, 10 μM GSKJ4 for 5 hr
Protocol: (§3) FIG. 6 illustrates that fast accumulation of post-replicative H3K27me3 leads to decreased recruitment of lineage-determining TFs to DNA during differentiation of T cells. Naive T cells were primed for 12 hr and stimulated to Th1 (left, middle) or Th2 (right) pathways. Cells were untreated or treated with 10 μM of GSKJ4 for 5 hr, labeled with EdU for 15 min (left) or pulse-labeled for 1 hr (middle and right). CAA was performed with antibodies to H3K27me3 (left), T-bet (middle) and GATA3 (right).
(§4) Chromatin assembly assay: Cells were grown on chamber slides, pulse-labeled with 5 μM EdU and fixed at room temperature with 4% formaldehyde in PBS for 15 min, washed with PBS, and permeabilized with 0.3% Triton for 15 min. Cells were subjected to Click-iT reaction with biotin-azide for 30 min. […] The results of CAA experiments shown in FIG. 1A were quantified by counting the number of PLA signals per EdU-labeled nuclei in 50 cells of each of the three independent experiments. The nature of the results in the rest of the figures alleviated the need to quantify the results of these assays.
(§5) New approaches to study the fate of chromatic-associated proteins following DNA replication were developed. […] Cells can be then examined for specificity of interactions (e.g. specific PLA signals are detected only in EdU-labeled nuclei), and by assessing tissue specificity using relevant protein markers. […]

PU.1 = assay: CAA: recruitment of PU.1 to nascent DNA in CD34+ HPCs; format: cell-based, human; conditions: CD34+ HPCs induced with M-CSF 12 hr
Text: as §2
as §1, with “assays. […]” for “assays.”

GATA3 = assay: CAA: recruitment of GATA3 to nascent DNA in T cells (Th2); format: cell-based; conditions: Th2 pathway, 10 μM GSKJ4 for 5 hr
Protocol: as §3, §4, §5

C/EBPa = assay: CAA: recruitment of C/EBPa to nascent DNA in CD34+ HPCs; format: cell-based, human; conditions: CD34+ HPCs induced with G-CSF 12 hr
Text: as §2
as §1, with “assays. […]” for “assays.”

LXRa [4] = assay: Immunostaining of LXRa localisation in HUT78 cells; format: cell-based, human; conditions: 1 μM GW3965, untreated: mostly in the cytoplasm
Protocol: (§6) FIGS. 15A-15C illustrate the effect of EPZ and small molecule ligand treatment on TF binding. […] Cells were immunostained with antibodies to LXRa (left), and GR (right). Nuclei stained by DAPI are shown in the lower panel. […] In FIG. 15C, T-ALL CCRF-HSB-2 cells were untreated or treated for 6 hr with 5 μM of ISX9, or pre-treated with 0.5 μM EPZ and then treated for 6 hr with 5 μM of ISX9. In FIG. 15B and FIG. 15C, DNA was labeled with EdU for 15 min. In FIG. 15B, CAA was performed with antibodies to H3K27me3 (left), LXRa (middle), and GR (right). In FIG. 15C, with antibody to MEF-2. PLA signals are shown in the lower panel. The schemes above show the state of condensation of nascent chromatin.

LXRa [5] = assay: CAA: binding of LXRa to nascent DNA in HUT78 cells; format: cell-based, human; conditions: 6 hr 1 μM GW3965, no EPZ
Protocol: as §6, §4

THP-1 Luc+ cells = assay: THP-1 Luc+ xenograft AML model, bioluminescence; format: in vivo; conditions: NRG mice, THP-1 Luc+ 1×10^6/mouse; 30 days post injection
Text: NRG were mice injected with THP-1 Luc+ cells, an especially aggressive AML line (1×10^6/mouse). 14 days post-injection, mice were imaged and left untreated (Controls), treated with EPZ alone, Dexa alone and ISX9 alone for 16 days, or pre-treated (2 days) with EPZ and co-treated with Dexa and EPZ (Dexa+EPZ) or with ISX9 and EPZ (ISX9+EPZ) for 14 additional days.

[6] = system: HH, HUT78, Jurkat E6.1 and CCRF-HSB-2 cells; assay: Cell viability screen of TCL cells (flow cytometry with Sytox Green); format: cell-based, human; conditions: HUT78, Jurkat E6.1, CCRF-HSB-2, with and without 1 μM EPZ 24 hrs, then 10 days
Protocol: (§7) Sezary syndrome (SS) cells HH (FIG. 12A) and HUT78 (FIG. 12B), and T-cell acute lymphoblastic leukemia (T-ALL) cells Jurkat E6.1 (FIG. 12C) and CCRF-HSB-2 (FIG. 12D) were grown with and without 1 μM EPZ for 24 hrs. Indicated small molecule compounds were added in indicated concentrations and cells were grown for an additional 10 days.
To test the idea that restoring the ability of cells to de-condense nascent chromatin may enable reprogramming of TCLs, a two-step induction was devised: Cells were first treated with the inhibitors of the EZH1/2 HMTs, and then induced with small molecule ligands known to activate specific TFs. […] A library of small molecules was compiled that included ligands for nuclear hormone receptors, cytokines, ligands for GPCRs, and small molecules that are used to reprogram mature cells into pluripotent cells (FIG. 11). Since different ligands may induce reprogramming of leukemic cells into different lineages, it was not possible to use specific differentiation markers at initial stages of these screens, and therefore cell viability was used as a readout for the initial screens. The earliest effects on cell viability were observed after 5 days of treatment, and therefore screens for cell viability (flow cytometry with Sytox green) were performed at days 8-11. […]

MEF2 = assay: CAA: binding of MEF2 to nascent chromatin in CCRF-HSB-2 cells; format: cell-based, human; conditions: 5 μM ISX9 6 hr, with or without 0.5 μM EPZ pre-treatment
Protocol: as §6, §4

all tested leukemias = assay: In vitro assays with cultured leukemic cells of various leukemia types; format: cell-based; conditions: cell lines of various leukemia types
Protocol: Leukemic cells from patients can be established in short-term culture for about 10 days. During this time, these cells are screened for the best possible reprogramming agent, which causes reprogramming (e.g. differentiation), loss of cell viability and apoptosis. […] These assays include cell viability, apoptosis induction, and examining cell differentiation markers. Thus, within 7-10 days, the most efficient molecules are determined, which induce reprogramming of leukemic cells, which leads to inhibition of cell viability and induction of apoptosis in individual patients. Indeed, similar studies using a number of different cell lines of various leukemia types have seen differences in responses to various reprogramming agents (FIG. 14).

[7] = system: AML cell lines THP-1, K562 and KG-1a; assay: Cell viability of AML cell lines (flow cytometry with Sytox Green); format: cell-based, human; conditions: THP-1, K562, KG-1a; performed as in FIG. 12
Protocol: as §7
The assays were performed as described in FIG. 12.
Similar experiments were performed with the AML cell lines THP-1, K562 and KG-1a.

GR target genes = assay: qRT-PCR of differentiation-associated (GR target) genes in THP-1, SEM and HH cells; format: cell-based, human; conditions: 24 hr
Protocol: Graphs show induction of transcription of GR target genes. […] Graphs show induction of transcription of GR target genes. FIG. 17C The T-ALL HH cells were untreated (Untr) or treated with 1 μM EPZ for 24 hr. […] Bottom graph, cells were then treated with 1 μM of ISX-9 for 72 hr or with combinations of EPZ and ISX9. Analysis by qRT-PCR.
Gene expression analysis by RT-qPCR: Total RNA was isolated directly from freshly collected hESCs with TRIzol and for mESCs with High Pure RNA Isolation Kit. cDNA was synthesized by using 1 μg total RNA in a 20 μL reaction with Superscript III and oligo (dT) for hESC or random hexamers (Life Tech) for mECS. After reverse transcription was complete, one microliter of RNase H was added to each reaction tube, and the tubes were incubated for 20 min at 37° C. before proceeding to PCR. Real-time PCR was carried out on a 7500 Real-Time PCR System using the 2× Power SYBR green PCR master mix. GAPDH was used as an internal control. All PCR products were checked by running an agarose gel for the first time and by doing dissociation assay every time to exclude the possibility of multiple products. PCR analyses were conducted in triplicate for each sample.
Graphs show induction of transcription of GR target genes. […] Graphs show induction of transcription of GR target genes. […]

Chain of EZH2 (Q15910 whole entry): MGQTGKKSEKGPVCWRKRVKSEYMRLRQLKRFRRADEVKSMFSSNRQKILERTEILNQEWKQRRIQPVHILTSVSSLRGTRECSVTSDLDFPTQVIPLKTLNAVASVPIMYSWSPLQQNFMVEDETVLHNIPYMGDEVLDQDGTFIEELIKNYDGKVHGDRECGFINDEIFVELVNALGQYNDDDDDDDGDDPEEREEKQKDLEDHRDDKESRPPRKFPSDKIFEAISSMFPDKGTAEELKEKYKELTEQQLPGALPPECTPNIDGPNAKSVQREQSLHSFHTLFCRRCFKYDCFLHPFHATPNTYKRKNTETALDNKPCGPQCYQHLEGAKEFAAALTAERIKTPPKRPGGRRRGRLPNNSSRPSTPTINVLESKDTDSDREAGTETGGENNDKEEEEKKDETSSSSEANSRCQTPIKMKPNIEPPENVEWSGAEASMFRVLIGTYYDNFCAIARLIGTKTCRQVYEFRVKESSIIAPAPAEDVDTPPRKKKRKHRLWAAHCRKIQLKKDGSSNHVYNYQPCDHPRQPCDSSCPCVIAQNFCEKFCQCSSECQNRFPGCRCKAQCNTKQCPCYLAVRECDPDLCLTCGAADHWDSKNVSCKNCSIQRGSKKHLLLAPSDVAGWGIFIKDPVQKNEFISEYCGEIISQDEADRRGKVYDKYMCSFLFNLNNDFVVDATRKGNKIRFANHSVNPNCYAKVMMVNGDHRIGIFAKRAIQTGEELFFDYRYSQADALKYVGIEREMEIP
Chain of EZH2 (O75530 whole entry partner): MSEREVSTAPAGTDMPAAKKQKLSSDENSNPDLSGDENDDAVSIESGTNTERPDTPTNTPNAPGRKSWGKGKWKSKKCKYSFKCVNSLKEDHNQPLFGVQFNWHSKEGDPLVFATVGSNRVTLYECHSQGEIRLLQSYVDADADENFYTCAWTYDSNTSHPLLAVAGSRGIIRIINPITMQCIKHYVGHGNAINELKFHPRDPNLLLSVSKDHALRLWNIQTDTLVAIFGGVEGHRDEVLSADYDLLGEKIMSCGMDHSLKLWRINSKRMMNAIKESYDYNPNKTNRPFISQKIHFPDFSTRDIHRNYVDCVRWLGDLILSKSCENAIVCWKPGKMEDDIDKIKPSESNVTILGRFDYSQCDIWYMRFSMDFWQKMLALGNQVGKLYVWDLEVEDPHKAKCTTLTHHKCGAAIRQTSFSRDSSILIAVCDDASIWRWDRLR
Chain of EZH2 (Q15022 whole entry partner): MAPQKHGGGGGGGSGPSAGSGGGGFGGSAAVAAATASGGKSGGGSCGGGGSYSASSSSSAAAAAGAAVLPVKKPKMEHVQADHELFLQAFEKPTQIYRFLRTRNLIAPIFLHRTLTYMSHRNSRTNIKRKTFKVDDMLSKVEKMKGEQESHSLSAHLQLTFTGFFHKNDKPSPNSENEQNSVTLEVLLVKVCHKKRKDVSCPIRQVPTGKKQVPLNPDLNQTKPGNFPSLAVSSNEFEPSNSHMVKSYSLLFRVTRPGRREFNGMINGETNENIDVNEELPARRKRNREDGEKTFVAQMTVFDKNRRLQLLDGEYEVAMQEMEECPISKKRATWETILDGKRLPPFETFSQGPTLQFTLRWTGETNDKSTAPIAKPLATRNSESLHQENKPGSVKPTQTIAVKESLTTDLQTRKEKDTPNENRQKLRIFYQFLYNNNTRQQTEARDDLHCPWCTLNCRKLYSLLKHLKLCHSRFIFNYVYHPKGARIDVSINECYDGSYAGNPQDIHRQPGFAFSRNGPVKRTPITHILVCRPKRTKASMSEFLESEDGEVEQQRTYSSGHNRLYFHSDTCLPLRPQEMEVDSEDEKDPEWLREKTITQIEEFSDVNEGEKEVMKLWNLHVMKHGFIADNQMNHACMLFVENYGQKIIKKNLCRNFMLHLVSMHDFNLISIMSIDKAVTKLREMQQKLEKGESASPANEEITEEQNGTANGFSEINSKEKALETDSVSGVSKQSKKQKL

Compound: CC1=C(/C=C/C(C)=C/C=C/C(C)=C/C(=O)O)C(C)(C)CCC1 [ATRA, all-trans retinoic acid]
- terminal differentiation of cells (HL-60 cells): around 90%

Compound: Nc1nccc2c1ncn2[C@@H]1C=C(CO)[C@@H](O)[C@H]1O [DZNep, 3-deazaneplanocin A]
- specificity to EZH2 (EZH2): not specific to EZH2

Compound: Cc1cc(C)c(CNC(=O)c2cc(-c3ccc(CN4CCOCC4)cc3)cc3c2cnn3C2CCCC2)c(=O)[nH]1 [EPZ005687]
- inhibition of the Y641 and A677 mutants of EZH2 [1]: can also inhibit

Compound: CC[C@H](C)n1cc(C)c2c(C(=O)NCc3c(C)cc(C)[nH]c3=O)cc(-c3ccc(N4CCNCC4)nc3)cc21 [GSK126]
- levels of global and nascent chromatin marked with H3K27me3 (H3K27me3 [2]; 24 hr, 0.5-1 μM range, tested by CAA): marked decrease

Compound: CCOC(=O)CCNc1cc(N2CCc3ccccc3CC2)nc(-c2ccccn2)n1 [GSKJ4]
- accumulation of H3K27me3 following DNA replication (H3K27me3 [3]): strongly increased
- recruitment of the TF GATA-1 (GATA-1): strongly inhibited
- recruitment of T-bet to nascent DNA (T-bet): inhibition
- recruitment of the TF PU.1 (PU.1): strongly inhibited
- recruitment of GATA3 to nascent DNA (GATA3): inhibition
- recruitment of the TF C/EBPa (C/EBPa): strongly inhibited

Compound: O=C(O)Cc1cccc(OCCCN(Cc2cccc(C(F)(F)F)c2Cl)CC(c2ccccc2)c2ccccc2)c1 [GW3965]
- localisation of LXRa after induction with ligand (LXRa [4]): exclusively nuclear
- binding of LXRa to DNA, ligand alone (LXRa [5]): not able to bind to DNA

Compound: O=C(NC1CC1)c1cc(-c2cccs2)on1 [ISX-9]
- THP-1 cell growth / outgrowth (bioluminescence fold-changes) vs untreated control animals (THP-1 Luc+ cells): little effect
- inhibition of cell viability of TCL cells [6]: effective
- binding of activated MEF2 to nascent chromatin (MEF2): occurs only following de-condensation of chromatin by EPZ
- efficiency as reprogramming agent across leukemias (all tested leukemias): efficient in all tested leukemias
- inhibition of cell viability of AML cell lines [7]: induced inhibition of cell viability in all AML cell lines

Compound: C[C@]12C=CC(=O)C=C1CC[C@@H]1[C@@H]2C(=O)C[C@@]2(C)[C@H]1CC[C@]2(O)C(=O)CO [Prednisone]
- expression of differentiation-associated genes vs untreated cells (GR target genes): no statistical difference
- level of H3K27me3 on 15 min-labeled nascent DNA (H3K27me3 [2]; HUT78 cells, 0.2 μM, through 10 hr of induction): remained unchanged

Compound: arsenic trioxide [ATO]
- terminal differentiation of cells (HL-60 cells): around 90%
